28 compounds from US20060128695A1, “Cyclic nucleotide phosphodiesterase inhibitors, preparation and uses” (NEURO3D, priority 2002, published 2006) can be followed below.

Where a name gives a salt, the structure may show the parent alone.

The first test has as its target T1, PDE2 (Bos taurus, UniProt P14099).
T1 construct: PDE2 was prepared from bovine endothelial cells by the same methods; endogenous in cells; host or cells: bovine endothelial cells
T1 sequence (P14099 1-921): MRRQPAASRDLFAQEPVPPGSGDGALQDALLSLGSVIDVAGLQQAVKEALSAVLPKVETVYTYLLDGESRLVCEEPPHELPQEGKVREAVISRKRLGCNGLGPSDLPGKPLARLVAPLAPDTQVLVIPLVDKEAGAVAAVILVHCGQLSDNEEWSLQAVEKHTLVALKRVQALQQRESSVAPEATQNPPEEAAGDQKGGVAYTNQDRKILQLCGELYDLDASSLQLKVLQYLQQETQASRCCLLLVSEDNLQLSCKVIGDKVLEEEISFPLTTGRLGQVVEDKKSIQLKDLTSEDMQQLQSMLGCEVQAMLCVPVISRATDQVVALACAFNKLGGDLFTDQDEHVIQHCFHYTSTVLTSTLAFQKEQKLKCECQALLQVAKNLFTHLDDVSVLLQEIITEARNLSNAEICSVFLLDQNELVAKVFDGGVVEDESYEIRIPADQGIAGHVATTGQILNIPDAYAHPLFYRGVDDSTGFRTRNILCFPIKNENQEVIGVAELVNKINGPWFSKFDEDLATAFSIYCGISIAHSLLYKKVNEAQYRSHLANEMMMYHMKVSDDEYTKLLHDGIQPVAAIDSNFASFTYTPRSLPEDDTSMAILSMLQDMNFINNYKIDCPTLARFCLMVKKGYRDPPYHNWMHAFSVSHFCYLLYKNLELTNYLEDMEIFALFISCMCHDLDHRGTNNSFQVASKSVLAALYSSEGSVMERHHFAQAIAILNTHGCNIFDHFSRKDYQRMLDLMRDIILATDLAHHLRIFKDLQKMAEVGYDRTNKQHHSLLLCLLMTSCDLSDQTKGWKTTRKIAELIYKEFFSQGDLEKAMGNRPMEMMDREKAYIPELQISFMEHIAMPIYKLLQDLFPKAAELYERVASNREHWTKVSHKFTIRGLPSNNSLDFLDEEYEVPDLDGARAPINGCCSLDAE
Description: Inhibition of PDE2, radioenzymatic phosphodiesterase assay. Format: biochemical, bovine.
Details: not given
Compound `COc1cc2c(cc1OC)N(C)C(=O)CN=C2c1cncc2ccccc12` [Compound 17f, 5-(4-isoquinolinyl)-7,8-dimethoxy-1-methyl-1,3-dihydro-1,4-benzodiazepin-2-one] yielded an IC50 of 4.7 µM.
In turn, `CCCCC#Cc1cccc(C2=NCC(=O)N(C)c3cc(OC)c(OC)cc32)c1` [Compound 6b, 7,8-dimethoxy-5-(3′-hex-1-ynylphenyl)-1-N-methyl-1,3-dihydro-2H-1,4-benzodiazepin-2-one] gave an IC50 of 1.06 µM.
As for `COc1cc2c(cc1OC)N(C)C(=O)CN=C2c1cccc(C(=O)NCc2ccccc2)c1` [Compound 36b, N-benzyl-3-(7,8-dimethoxy-1-methyl-2-oxo-2,3-dihydro-1H-1,4-benzodiazepin-5-yl) benzamide], the IC50 came to 3.1 µM.
As for `COc1cc2c(cc1OC)C(c1cccc(C(N)=O)c1)=NCC(=O)N2` [Compound 5e, 3-(7,8-dimethoxy-2-oxo-2,3-dihydro-1H-1,4-benzodiazepin-5-yl)benzamide], the IC50 came out at 6.6 µM.
On to `COc1ccc2c(c1)N(C)C(=O)CN=C2c1cccc(C#N)c1` [Compound 29a, 3-(8-methoxy-1-methyl-2-oxo-2,3-dihydro-1H-1,4-benzodiazepin-5-yl)benzonitrile], for which it took 35 µM to reach half-maximal inhibition (IC50).
The compound `COc1cc2c(cc1OC)N(C)C(=O)CN=C2c1cccc(CNCc2ccccc2)c1` [Compound 17m, 5-[3-(benzylaminomethyl)phenyl]-7,8-dimethoxy-1-methyl-1,3-dihydro-2H-1,4-benzodiazepin-2-one hydrochloride] yielded an IC50 of 4.8 µM.
In the case of `COc1cc2c(cc1OC)N(C)C(=O)CN=C2c1cccc(C(=O)NCCCc2ccccc2)c1` [Compound 36f, 3-(7,8-dimethoxy-1-methyl-2-oxo-2,3-dihydro-1H-1,4-benzodiazepin-5-yl)-N-(3-phenylpropyl)benzamide], the IC50 worked out at 2.8 µM.
As for `CCCCCCc1cccc(C2=NCC(=O)N(C)c3cc(OC)c(OC)cc32)c1` [Compound 6e, 7,8-dimethoxy-5-(3′-hexylphenyl)-1-N-methyl-1,3-dihydro-2H-1,4-benzodiazepin-2-one], the IC50 is 0.36 µM.
Same read-out and setting: the same measure for `CCN1C(=O)CN=C(c2cccc(C(N)=O)c2)c2cc(OC)c(OC)cc21` [Compound 5g, 3-(1-ethyl-7,8-dimethoxy-2-oxo-2,3-dihydro-1H-1,4-benzodiazepin-5-yl)benzamide]: 24.6 µM; for `CCOC(=O)CN1C(=O)CN=C(c2cccc(C#N)c2)c2cc(OC)c(OC)cc21` [Compound 4n, Ethyl[5-(3-cyanophenyl)-7,8-dimethoxy-2-oxo-2,3-dihydro-1H-1,4-benzodiazepin-1-yl]acetate]: 3.7 µM; for `CCCN1C(=O)CN=C(c2cccc(C(N)=O)c2)c2cc(OC)c(OC)cc21` [Compound 5f, 3-(7,8-dimethoxy-1-propyl-2-oxo-2,3-dihydro-1H-1,4-benzodiazepin-5-yl)benzamide]: 12.6 µM.
On the same count and under the same terms, in the case of `COc1cc2c(cc1OC)N(C)C(=O)CN=C2c1ccc2c(c1)OCO2` [Compound 17o, 7,8-dimethoxy-1-methyl-5-(3,4-methylenedioxyphenyl)-1,3-dihydro-2H-1,4-benzodiazepin-2-one] it was 7.8 µM; in that of `COC(=O)c1cccc(C2=NCC(=O)N(C)c3cc(OC)c(OC)cc32)c1` [Compound 34a, 3-(7,8-dimethoxy-1-methyl-2-oxo-2,3-dihydro-1H-1,4-benzodiazepin-5-yl)methyl benzoate], 2.6 µM.
`COc1cccc2c1C(c1cccc(C#N)c1)=NCC(=O)N2` [Compound 28b, 3-(6-methoxy-2-oxo-2,3-dihydro-1H-1,4-benzodiazepin-5-yl)benzonitrile] displayed an IC50 of 88 µM.

Staying with this test, now noted: 10 μM test compound; PDE2 from bovine endothelial cells.
As for `COc1cc2c(cc1OC)C(c1cccc(C(F)(F)F)c1)=NCC(=O)N2` [Compound 3d, 7,8-dimethoxy-[5-(3-trifluoromethyl)phenyl]-1,3-dihydro-2H-1,4-benzodiazepin-2-one], the “PDE2 percentage inhibition at 10 μM” value is 22%.
Consider “Methyl (2E)-3-[5-(cyanophenyl)-7,8-dimethoxy-1-methyl-2-oxo-2,3-dihydro-1H-1,4-benzodiazepin-9-yl)phenyl]acrylate [Compound 25d]”, for which the “PDE2 percentage inhibition at 10 μM” value was determined as 2.4%.
The same measure, in the same setting: the same measure for `CNC1=Nc2cc(OC)c(OC)cc2C(c2cccc(C#N)c2)=NC1` [Compound 12a, 3-(7,8-dimethoxy-2-methylamino-1,3-dihydro-3H-1,4-benzodiazepin-5-yl)benzonitrile]: 16%.

The test is the same for the next values; noted with them: 10 μM test compound; PDE2 from bovine endothelial cells; read-out: PDE2 percentage inhibition at 10 μM.
Turning to `COc1cc2c(cc1OC)-n1ccnc1CN=C2c1cccc(C(N)=O)c1` [Compound 11b, 3-(8,9-dimethoxy-4H-imidazo[1,2-a] [1,4]benzodiazepin-6-yl)benzamide], the inhibition at 10 µM came to 69.3%.
Same read-out and setting: the same measure for `COc1cc2c(cc1OC)N(C)C(=O)CN=C2c1cccc(CNC(C)=O)c1` [Compound 8b, N-[3-(7,8-dimethoxy-1-methyl-2-oxo-2,3-dihydro-1H-1,4-benzodiazepin-5-yl)benzyl]acetamide]: 27.2%; for `COc1cc2c(cc1OC)N(C)C(=O)CN=C2c1cccc(C(=O)N(C)C)c1` [Compound 36d, 3-(7,8-dimethoxy-1-methyl-2-oxo-2,3-dihydro-1H-1,4-benzodiazepin-5-yl)-N,N-dimethylbenzamide]: 17%.

Staying with this test, now noted: read-out: PDE2 percentage inhibition at 10 μM.
Turning to `COc1cc2c(cc1O)C(c1cccc(C#N)c1)=NCC(=O)N2` [Compound 22b, 3-(7-hydroxy-8-methoxy-2-oxo-2,3-dihydro-1H-1,4-benzodiazepin-5-yl)benzonitrile], the inhibition at 10 µM is 3.8%.
On the same count and under the same terms, in the case of `COc1cc2c(c(-c3ccccc3)c1OC)C(c1cccc(C(N)=O)c1)=NCC(=O)N2C` [Compound 5c, 3-(7,8-dimethoxy-1-methyl-2-oxo-6-phenyl-2,3-dihydro-1H-1,4-benzodiazepin-5-yl)benzamide] it was 53.3%.
Same read-out and setting: in the case of `COc1cc2c(cc1OC)N(CCc1ccccc1)C(=O)CN=C2c1cccc(C#N)c1` [Compound 4j, 3-[7,8-dimethoxy-2-oxo-1-(2-phenylethyl)-2,3-dihydro-1H-1,4-benzodiazepin-5-yl]-benzonitrile] it was 5.6%; in that of `CCCC1N=C(c2cccc(CO)c2)c2cc(OC)c(OC)cc2N(C)C1=O` (centres unmarked) [Compound 17h, 7,8-dimethoxy-5-(3-hydroxymethylphenyl)-1-methyl-3-propyl-1,3-dihydro-2H-1,4-benzodiazepin-2-one], 9.2%.
Regarding `COc1cccc2c1C(c1ccccc1)=NCC(=O)N2` [Compound 28d, 6-methoxy-5-phenyl-1,3-dihydro-2H-1,4-benzodiazepin-2-one], the inhibition at 10 µM amounted to 4.7%.
As for `COc1cc2c(cc1OC)N(C)C(=O)CN=C2c1cccc(-c2cccc(C#N)c2)c1` [Compound 6l, 3′-(7,8-dimethoxy-1-methyl-2-oxo-2,3-dihydro-1H-1,4-benzodiazepin-5-yl)-1,1′-biphenyl-3-carbonitrile], the inhibition at 10 µM was found to be 77.5%.
Take `COc1cc2c(cc1OC)N(C)C(=O)CN=C2c1cccc(-c2nc(-c3ccccc3)cs2)c1` [Compound 9b, 7,8-dimethoxy-1-methyl-5-[3-(4-phenyl-1,3-thiazol-2-yl)phenyl]-1,3-dihydro-2H-1,4-benzodiazepin-2-one]: the inhibition at 10 µM amounted to 91.4%.
As to `COc1cccc2c1C(c1cccc(C#N)c1)=NCC(=O)N2` [Compound 28b, 3-(6-methoxy-2-oxo-2,3-dihydro-1H-1,4-benzodiazepin-5-yl)benzonitrile], the inhibition at 10 µM amounted to 34.5%.
Take `COc1cc2c(cc1OC)N(C)C(=O)CN=C2c1cccc(N)c1` [Compound 17i, 5-(3-aminophenyl)-7,8-dimethoxy-1-methyl-1,3-dihydro-2H-1,4-benzodiazepin-2-one]: the inhibition at 10 µM is 40%.
